Reference: PMC6746705, “Distinct effects of Q925 mutation on intracellular and extracellular Na^+ and K^+ binding to the Na^+, K^+-ATPase” (Scientific Reports, 2019)
pIC50: −log10 of the molar value.

System: T1, endogenous COS-1 cell Na+, K+-ATPase
T1 construct: gene ATP1A1; endogenous enzyme in COS-1 plasma membranes
Assay: high-affinity phase of biphasic ouabain inhibition of Na+,K+-ATPase activity in plasma membranes
Format: biochemical

C[C@@H]1O[C@@H](O[C@H]2C[C@@H](O)[C@]3(CO)[C@H]4[C@H](O)C[C@]5(C)[C@@H](C6=CC(=O)OC6)CC[C@]5(O)[C@@H]4CC[C@]3(O)C2)[C@H](O)[C@H](O)[C@H]1O [ouabain]
pIC50: ~6.00
